Experimental data published in patent US8653127B2, “Bicyclic pyrazolo-heterocycles” (Cara Therapeutics, Inc., priority 2009, dated 2014).
Where two headings read alike, the source gives them in different places.

Columns and labels:
[1] = system: Complete Freund's Adjuvant (CFA) model of inflammatory pain; assay: Anti-hyperalgesia in CFA inflammatory pain model (paw withdrawal latency to thermal stimulus); assay type: in vivo, male Sprague-Dawley rats; settings: PO dose 3 mg/kg, 1 hr after dosing (24 hr after CFA), rat, read-out: % MPE (1 hr), paw withdrawal latency after CFA injection
Protocol: The anti-hyperalgesic effects of test compounds in the Complete Freund's Adjuvant (CFA) model of inflammatory pain were determined essentially as described in U.S. Pat. No. 7,517,874 using male Sprague-Dawley rats (Hsd: Sprague-Dawley®SD®, Harlan, Indianapolis, Ind.) weighing 200-300 grams.
Test compounds were prepared in a Cremaphor vehicle mixture of 1:1:18 CremophorEL:ethanol:water. Cremophor was obtained from Sigma Chemical (St. Louis, Mo.). Vehicle mixture or vehicle mixture+test compound were each administered p.o.
Assessment of thermal hyperalgesia: Baseline and post-treatment paw withdrawal latencies to a noxious thermal stimulus were measured using a plantar test apparatus (Ugo Basile; obtained from Stoelting, Wood Dale, Ill.). This apparatus generates an infrared heat source that is linearly increasing in intensity. To avoid tissue damage, the power to the heat source was cut off after 20 seconds.
Paw withdrawal latency is defined as the time required for the rat to flick its paw away from the thermal stimulus. Ibuprofen (100 mg/kg, p.o.) was used as the positive control. Paw withdrawal latencies (in seconds) were measured before (naïve paw latency, L1) and 24 hr following (CFA-inflamed paw latency, L2) a single intraplantar injection of 0.1 mL CFA (Sigma-Aldrich, cat F5881, Mycobacterium tuberculosis 1 mg/ml).
Test compounds were administered orally 23 hours following CFA injection; i.e., 1 hour prior to thermal assessment (compound treated CFA-inflamed paw latency, L3). The mean paw withdrawal latency and standard error of the mean (SEM) was determined for the injured paws for each treatment group.
Data were expressed as percent maximum percent effect (% MPE) defined as the percentage of restoration of latency of test compound-treated CFA inflamed paw as compared to the naïve paw latency.

[2] = biological target: human CB1 receptor (hCB1) (Homo sapiens, UniProt P21554); assay: cAMP assay, agonist/inverse agonist activity at human CB1 receptor; assay type: cell-based; settings: hCB1R, read-out: EC50 at hCB1R (Potency at Human CB1 determined by cAMP Assay)
Sequence of human CB1 receptor (hCB1) (P21554 whole entry): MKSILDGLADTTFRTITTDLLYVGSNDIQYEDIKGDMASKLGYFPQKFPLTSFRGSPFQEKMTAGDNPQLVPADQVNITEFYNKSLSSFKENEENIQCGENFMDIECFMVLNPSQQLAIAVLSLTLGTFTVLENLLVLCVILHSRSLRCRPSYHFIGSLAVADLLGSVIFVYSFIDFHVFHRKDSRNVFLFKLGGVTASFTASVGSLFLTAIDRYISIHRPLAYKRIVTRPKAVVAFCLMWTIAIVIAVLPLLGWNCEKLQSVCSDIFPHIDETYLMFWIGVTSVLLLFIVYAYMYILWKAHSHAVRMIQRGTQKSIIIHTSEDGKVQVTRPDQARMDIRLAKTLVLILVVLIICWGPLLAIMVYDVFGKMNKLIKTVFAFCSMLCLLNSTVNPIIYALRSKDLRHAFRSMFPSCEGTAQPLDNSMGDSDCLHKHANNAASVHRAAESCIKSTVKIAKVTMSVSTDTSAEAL
Protocol: The ability of each of the compounds to act as agonists or inverse agonists at human CB2 and CB 1 receptors (hCB2, hCB 1, respectively) and at the rat CB2 receptor (rCB2) was determined by measuring changes in intracellular cyclic AMP (cAMP) levels as described in U.S. Pat. No. 7,517,874.
TR-FRET was measured using a 330-380 nm excitation filter, 615 nm and 665 nm emission filters, dichroic mirror 380 nm and Z=10 mm. cAMP concentrations in each well were back-calculated from a cAMP standard curve run concurrently during each assay. Each plate contained 16 wells of forskolin stimulated cells and 16 wells of forskolin plus 1 μM CP55,940-treated cells. Concentrations of cAMP were expressed as a percent of the difference of these two groups of wells. Concentration-response data including EC50 (the concentration of compound producing 50% of the maximal response) and intrinsic activity (the percent maximal activation compared to full activation by CP55,940) were determined using a four-parameter non-linear regression algorithm (CambridgeSoft Bioassay).

[3] = biological target: human CB2 receptor (hCB2) (Homo sapiens, UniProt P34972); assay: cAMP assay, agonist/inverse agonist activity at human CB2 receptor; assay type: cell-based
Sequence of human CB2 receptor (hCB2) (P34972 whole entry): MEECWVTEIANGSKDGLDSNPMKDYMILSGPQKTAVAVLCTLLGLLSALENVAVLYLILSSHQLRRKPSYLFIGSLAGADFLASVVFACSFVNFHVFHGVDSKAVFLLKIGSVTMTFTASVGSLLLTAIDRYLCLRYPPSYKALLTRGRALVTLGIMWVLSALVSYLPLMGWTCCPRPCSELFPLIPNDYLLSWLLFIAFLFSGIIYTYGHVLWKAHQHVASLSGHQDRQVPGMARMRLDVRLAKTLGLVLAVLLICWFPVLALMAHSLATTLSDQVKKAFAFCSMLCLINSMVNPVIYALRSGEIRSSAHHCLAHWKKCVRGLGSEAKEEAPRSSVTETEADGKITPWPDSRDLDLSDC
Protocol: TR-FRET was measured using a 330-380 nm excitation filter, 615 nm and 665 nm emission filters, dichroic mirror 380 nm and Z=10 mm. cAMP concentrations in each well were back-calculated from a cAMP standard curve run concurrently during each assay. Each plate contained 16 wells of forskolin stimulated cells and 16 wells of forskolin plus 1 μM CP55,940-treated cells. Concentrations of cAMP were expressed as a percent of the difference of these two groups of wells.

Row | SMILES | inhibition in vivo at 3 mg/kg [1] [%] | EC50 [2] [µM] | EC50 ([3]; hCB2R, cAMP assay, read-out: EC50 at hCB2R (Potency at Human CB2 determined by cAMP Assay)) [µM] | EC50 [3] [µM]
1 | CNC(=O)[C@@H](NC(=O)c1nn(-c2ccc(F)c(F)c2)c2c1COCC2)C(C)(C)C [Compound 114, (S)-1-(3,4-difluorophenyl)-N-(3,3-dimethyl-1-(methylamino)-1-oxobutan-2-yl)-1,4,6,7-tetrahydropyrano[4,3-c]pyrazole-3-carboxamide] | 41 | < 1 | < 1 | 
2 | CC(C)(C)[C@H](NC(=O)c1nn(-c2ccc(F)c(F)c2)c2c1COCC2)C(=O)NCCO [Compound 115, (S)-1-(3,4-difluorophenyl)-N-(1-(2-hydroxyethylamino)-3,3-dimethyl-1-oxobutan-2-yl)-1,4,6,7-tetrahydropyrano[4,3-c]pyrazole-3-carboxamide] | 35 | < 1 |  | < 1
3 | CC(C)(C)[C@H](NC(=O)c1nn(-c2ccc(F)c(F)c2)c2c1CCOC2)C(=O)NCCO [Compound 116, (S)-1-(3,4-difluorophenyl)-N-(1-(2-hydroxyethylamino)-3,3-dimethyl-1-oxobutan-2-yl)-1,4,5,7-tetrahydropyrano[3,4-c]pyrazole-3-carboxamide] | 60 | < 1 |  | < 1
